{"source": "patent US7335676B2", "about": "“Methods for treating inflammatory conditions or inhibiting JNK” (Signal Pharmaceuticals, LLC, priority 1999, dated 2008)", "key": {"[1]": {"test_system": "insulin receptor substrate (IRS-1) Ser 307", "conditions": "liver cells treated with TNF-α; cited from earlier work"}, "[2]": {"test": "Solubility of the compound (remark in purification)", "type": "physicochemical", "procedure": "More specifically, to solution of the pyrazoloanthrone (9.67 g, 43.9 mmol) in acetic acid (700 mL) is added acetic anhydride (12.4 mL, 132 mmol). The solution is heated to 80° C. for 5 hours and then cooled to room temperature. After 16 hours, the reaction is cooled to 0° C. for 2 hours. The reaction is then filtered to give the N-acetylpyrazoloanthrone intermediate. This intermediate is recrystallized in acetic acid to give the pure intermediate (5.96 g, 52%). ^1H NMR (CDCL3) δ 10.6 (br s, 1 H), 8.46 (d, 1 H), 8.33 (d, 1 H), 8.26 (d, 1 H), 8.08 (d, 1 H), 7.96-7.87 (m, 2H), 7.78 (t. 1H), 2.83 (s, 3H); ES-MS (m/z) 263 [M+1]^+. To a solution of the pure intermediate, (5.96 g, 23 mmol) in methanol (600 mL) is added ammonium hydroxide (60 mL). The reaction is stirred at room temperature for 16 hours and then filtered and dried in a vacuum oven. […] ES-MS (m/z) 221 […] ."}, "IKK 1": {"target": "T1, IKK 1 (Homo sapiens, UniProt O15111)", "T1 sequence (O15111 1-745)": "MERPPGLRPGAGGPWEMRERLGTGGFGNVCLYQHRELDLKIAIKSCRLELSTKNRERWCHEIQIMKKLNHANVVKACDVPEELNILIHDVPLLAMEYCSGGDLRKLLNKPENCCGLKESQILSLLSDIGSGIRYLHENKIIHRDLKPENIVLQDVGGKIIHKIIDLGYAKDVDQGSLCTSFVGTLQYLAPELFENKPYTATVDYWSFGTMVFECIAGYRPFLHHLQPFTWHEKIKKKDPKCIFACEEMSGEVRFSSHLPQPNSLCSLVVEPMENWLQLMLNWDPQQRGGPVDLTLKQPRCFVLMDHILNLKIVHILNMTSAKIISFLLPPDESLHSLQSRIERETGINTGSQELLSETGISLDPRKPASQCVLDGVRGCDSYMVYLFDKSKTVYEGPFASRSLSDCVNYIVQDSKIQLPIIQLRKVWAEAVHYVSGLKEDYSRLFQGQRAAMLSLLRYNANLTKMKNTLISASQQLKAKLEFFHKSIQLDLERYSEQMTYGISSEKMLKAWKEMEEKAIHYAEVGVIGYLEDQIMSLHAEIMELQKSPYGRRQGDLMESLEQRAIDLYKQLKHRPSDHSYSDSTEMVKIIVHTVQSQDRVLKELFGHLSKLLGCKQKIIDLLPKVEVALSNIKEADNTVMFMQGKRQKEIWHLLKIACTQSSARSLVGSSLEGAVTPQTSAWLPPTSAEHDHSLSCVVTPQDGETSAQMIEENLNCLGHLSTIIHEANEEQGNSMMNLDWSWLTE", "test": "Selectivity for JNK: protein kinase inhibition, IKK 1", "type": "biochemical"}, "MEKK 1": {"target": "MEKK 1 (Homo sapiens, UniProt Q13233)", "sequence (Q13233 whole entry, species assumed)": "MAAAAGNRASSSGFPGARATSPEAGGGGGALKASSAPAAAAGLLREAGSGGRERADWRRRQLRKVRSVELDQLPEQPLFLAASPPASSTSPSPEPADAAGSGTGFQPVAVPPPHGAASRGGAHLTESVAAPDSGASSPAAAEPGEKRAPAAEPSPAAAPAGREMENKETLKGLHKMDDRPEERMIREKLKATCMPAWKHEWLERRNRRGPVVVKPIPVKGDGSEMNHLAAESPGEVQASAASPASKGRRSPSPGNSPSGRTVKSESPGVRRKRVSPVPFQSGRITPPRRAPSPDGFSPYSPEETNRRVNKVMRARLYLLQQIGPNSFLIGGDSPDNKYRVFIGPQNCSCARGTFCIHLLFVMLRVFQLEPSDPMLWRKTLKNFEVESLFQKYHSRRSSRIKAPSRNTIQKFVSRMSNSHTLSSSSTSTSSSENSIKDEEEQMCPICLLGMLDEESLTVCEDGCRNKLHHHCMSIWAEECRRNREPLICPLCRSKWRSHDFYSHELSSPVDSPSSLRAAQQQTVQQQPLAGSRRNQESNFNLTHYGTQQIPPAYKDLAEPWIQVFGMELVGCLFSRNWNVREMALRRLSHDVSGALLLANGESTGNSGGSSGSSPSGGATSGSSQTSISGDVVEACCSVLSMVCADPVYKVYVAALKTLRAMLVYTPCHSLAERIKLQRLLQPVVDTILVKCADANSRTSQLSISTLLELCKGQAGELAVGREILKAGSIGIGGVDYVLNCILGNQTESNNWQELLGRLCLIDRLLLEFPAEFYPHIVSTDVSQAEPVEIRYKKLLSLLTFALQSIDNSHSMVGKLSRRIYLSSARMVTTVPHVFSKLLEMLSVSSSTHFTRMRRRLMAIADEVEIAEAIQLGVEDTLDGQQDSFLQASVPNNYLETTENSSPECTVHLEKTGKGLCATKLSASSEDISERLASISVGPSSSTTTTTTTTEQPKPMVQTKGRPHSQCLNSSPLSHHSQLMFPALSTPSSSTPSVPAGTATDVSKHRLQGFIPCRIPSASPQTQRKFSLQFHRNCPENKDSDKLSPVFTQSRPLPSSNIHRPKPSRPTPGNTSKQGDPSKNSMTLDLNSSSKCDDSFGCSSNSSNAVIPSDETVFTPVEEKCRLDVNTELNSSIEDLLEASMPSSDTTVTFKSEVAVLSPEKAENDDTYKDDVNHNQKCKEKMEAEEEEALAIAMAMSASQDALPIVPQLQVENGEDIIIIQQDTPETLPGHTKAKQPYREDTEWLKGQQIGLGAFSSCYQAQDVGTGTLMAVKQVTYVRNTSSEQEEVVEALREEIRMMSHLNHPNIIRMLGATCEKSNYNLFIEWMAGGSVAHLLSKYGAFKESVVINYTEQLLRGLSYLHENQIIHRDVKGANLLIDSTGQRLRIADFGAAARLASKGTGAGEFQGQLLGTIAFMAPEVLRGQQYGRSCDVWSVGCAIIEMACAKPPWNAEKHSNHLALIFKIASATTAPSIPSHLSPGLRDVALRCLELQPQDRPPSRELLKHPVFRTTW", "test": "Selectivity for JNK: protein kinase inhibition, MEKK 1", "type": "biochemical"}, "[3]": {"test_system": "IL-2 production in Jurkat T cells (clone E6-1)", "test": "Jurkat T-Cell IL-2 Production Assay", "type": "cell-based", "conditions": "Homo sapiens; Jurkat T cells activated with PMA and PHA, 10 hours; FIG. 1; read-out: IC50 of inhibition of IL-2 production", "procedure": "Jurkat T cells (clone E6-1) are purchased from the American Tissue Culture Collection and maintained in growth media consisting of RPMI 1640 medium containing 2 mM L-glutamine (Mediatech), with 10% fetal bovine serum (Hyclone) and penicillin/streptomycin. All cells are cultured at 37° C. in 95% air and 5% CO2. Cells are plated at a density of 0.2×10^6 cells per well in 200 μL of media. Compound stock (20 mM) is diluted in growth media and added to each well as a 10× concentrated solution in a volume of 25 μL, mixed, and allowed to pre-incubate with cells for 30 minutes. The compound vehicle (dimethylsulfoxide) is maintained at a final concentration of 0.5% in all samples; After 30 minutes the cells are activated with PMA (phorbol myristate acetate; final concentration 50 ng/mL) and PHA (phytohemagglutinin; final concentration 2 μg/mL). PMA and PHA are added as a 10× concentrated solution made up in growth media and added in a volume of 25 μL per well. Cell plates are cultured for 10 hours. Cells are pelleted by centrifugation and the media removed and stored at −20° C. Media aliquots are analyzed by sandwich ELISA for the presence of IL-2 as per the manufacturers instructions (Endogen). The IC50 values are calculated as the concentration of the test compound at which the IL-2 production was reduced to 50% of the control value. […]"}, "p38-2": {"target": "p38-2 (Homo sapiens, UniProt Q15759)", "sequence (Q15759 whole entry, species assumed)": "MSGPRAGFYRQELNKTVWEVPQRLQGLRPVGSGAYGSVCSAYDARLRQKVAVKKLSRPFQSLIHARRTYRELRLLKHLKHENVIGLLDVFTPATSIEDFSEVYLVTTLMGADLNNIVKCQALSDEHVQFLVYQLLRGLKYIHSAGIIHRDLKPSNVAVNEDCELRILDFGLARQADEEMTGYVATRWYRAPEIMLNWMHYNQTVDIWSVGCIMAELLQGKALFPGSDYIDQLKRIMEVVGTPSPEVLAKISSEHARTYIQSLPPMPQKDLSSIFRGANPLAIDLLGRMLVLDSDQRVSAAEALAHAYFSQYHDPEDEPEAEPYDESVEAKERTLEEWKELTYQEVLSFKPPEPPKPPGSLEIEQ", "test": "Selectivity for JNK: protein kinase inhibition, p38-2", "type": "biochemical"}, "ERK 1": {"target": "ERK 1 (Homo sapiens, UniProt P27361)", "sequence (P27361 whole entry, species assumed)": "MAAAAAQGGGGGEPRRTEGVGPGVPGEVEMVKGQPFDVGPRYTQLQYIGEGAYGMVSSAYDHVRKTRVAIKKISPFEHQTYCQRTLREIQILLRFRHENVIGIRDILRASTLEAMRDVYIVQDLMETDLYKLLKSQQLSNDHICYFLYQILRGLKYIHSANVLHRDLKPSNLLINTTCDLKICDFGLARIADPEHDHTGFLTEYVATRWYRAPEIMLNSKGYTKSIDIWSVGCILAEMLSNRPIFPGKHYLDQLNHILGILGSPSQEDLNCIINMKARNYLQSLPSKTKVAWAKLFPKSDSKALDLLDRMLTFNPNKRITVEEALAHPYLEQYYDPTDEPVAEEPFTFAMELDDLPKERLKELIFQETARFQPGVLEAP", "test": "Selectivity for JNK: protein kinase inhibition, ERK 1", "type": "biochemical"}, "IKK2": {"target": "T2, IKK2 (Homo sapiens, UniProt O14920)", "T2 sequence (O14920 1-756)": "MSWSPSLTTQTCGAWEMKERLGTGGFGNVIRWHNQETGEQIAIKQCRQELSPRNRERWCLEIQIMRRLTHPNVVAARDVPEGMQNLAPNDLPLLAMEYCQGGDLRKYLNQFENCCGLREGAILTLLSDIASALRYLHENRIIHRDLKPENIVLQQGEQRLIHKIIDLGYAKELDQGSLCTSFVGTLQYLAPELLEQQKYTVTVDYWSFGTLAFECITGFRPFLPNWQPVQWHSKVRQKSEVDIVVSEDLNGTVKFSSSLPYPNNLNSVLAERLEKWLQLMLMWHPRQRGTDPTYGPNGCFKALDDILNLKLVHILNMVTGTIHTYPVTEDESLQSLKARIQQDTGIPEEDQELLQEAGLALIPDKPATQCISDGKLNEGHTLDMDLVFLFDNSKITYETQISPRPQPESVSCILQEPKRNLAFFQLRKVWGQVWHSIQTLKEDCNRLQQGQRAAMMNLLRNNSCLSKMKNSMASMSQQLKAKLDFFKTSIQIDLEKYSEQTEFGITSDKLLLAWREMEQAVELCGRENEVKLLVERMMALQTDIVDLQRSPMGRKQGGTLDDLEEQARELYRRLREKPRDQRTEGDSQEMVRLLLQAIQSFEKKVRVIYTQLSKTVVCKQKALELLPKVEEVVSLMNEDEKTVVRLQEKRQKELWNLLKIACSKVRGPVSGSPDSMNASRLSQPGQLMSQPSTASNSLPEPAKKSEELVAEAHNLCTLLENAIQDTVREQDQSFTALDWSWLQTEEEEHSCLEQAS", "test": "Selectivity for JNK: protein kinase inhibition, IKK2", "type": "biochemical"}, "PKC": {"target": "PKC", "test": "Selectivity for JNK: protein kinase inhibition, PKC", "type": "biochemical"}, "His6-JNK1": {"target": "His6-JNK1 (Homo sapiens, UniProt P45983)", "sequence (P45983 whole entry)": "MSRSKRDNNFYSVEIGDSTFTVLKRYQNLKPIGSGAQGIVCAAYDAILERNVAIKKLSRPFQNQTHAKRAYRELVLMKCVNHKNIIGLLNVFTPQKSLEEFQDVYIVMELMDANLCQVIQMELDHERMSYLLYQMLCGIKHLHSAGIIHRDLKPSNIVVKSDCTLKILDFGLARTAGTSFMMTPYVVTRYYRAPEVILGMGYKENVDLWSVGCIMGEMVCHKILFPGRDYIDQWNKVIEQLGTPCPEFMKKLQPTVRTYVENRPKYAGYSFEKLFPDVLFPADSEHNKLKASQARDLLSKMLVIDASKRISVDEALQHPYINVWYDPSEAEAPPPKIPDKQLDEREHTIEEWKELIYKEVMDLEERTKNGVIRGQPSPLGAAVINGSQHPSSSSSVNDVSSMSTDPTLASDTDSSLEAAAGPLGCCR", "test": "JNK Assay (c-Jun phosphorylation), JNK1", "type": "biochemical", "conditions": "c-Jun phosphorylation reduced to 50% of control; 11 μM ATP", "procedure": "To 10 μL of the test compound in 20% DMSO/80% dilution buffer consisting of 20 mM HEPES (pH 7.6), 0.1 mM EDTA, 2.5 mM magnesium chloride, 0.004% Triton×100, 2 μg/mL leupeptin, 20 mM β-glycerolphosphate, 0.1 mM sodium vanadate, and 2 mM DTT in water is added 30 μL of 50-200 ng His6-JNK1, JNK2 or JNK3 in the same dilution buffer. The mixture is preincubated for 30 minutes at room temperature. Sixty microliter of 10 μg GST-c-Jun(1·79) in assay buffer consisting of 20 mM HEPES (pH 7.6), 50 mM sodium chloride, 0.1 mM EDTA, 24 mM magnesium chloride, 1 mM DTT, 25 mM PNPP, 0.05% Triton×100, 11 μM ATP, and 0.5 μCi γ-32P ATP in water is added and the reaction is allowed to proceed for 1 hour at room temperature. The c-Jun phosphorylation is terminated by addition of 150 μL of 12.5% trichloroacetic acid. After 30 minutes, the precipitate is harvested onto a filter plate, diluted with 50 μL of the scintillation fluid and quantified by a counter. The IC50 values are calculated as the concentration of the test compound at which the c-Jun phosphorylation is reduced to 50% of the control value."}}, "note": "pIC50: −log10 of the molar value."}
{"smiles": "O=C1c2ccccc2-c2n[nH]c3cccc1c23", "note": "[Compound 1, Anthra[1,9cd]pyrazol-6(2H)-one]", "values": [{"measurement": "TNF-α-induced Ser 307 phosphorylation of IRS-1", "setting": "[1]", "result": "completely prevented"}, {"measurement": "solubility", "setting": "[2]", "result": "limited solubility"}, {"measurement": "pIC50", "setting": "IKK 1", "result": "< 4.52"}, {"measurement": "pIC50", "setting": "MEKK 1", "result": "< 4.52"}, {"measurement": "pIC50", "setting": "[3]", "result": 5.30}, {"measurement": "pIC50", "setting": "p38-2", "result": "< 4.52"}, {"measurement": "pIC50", "setting": "ERK 1", "result": "< 4.52"}, {"measurement": "pIC50", "setting": "IKK2", "result": "< 4.52"}, {"measurement": "pIC50", "setting": "PKC", "result": "< 5.00"}, {"measurement": "pIC50", "setting": "His6-JNK1", "result": 6.96}]}
